According to patent US11358930B2, “Selective potassium channel agonists” (University of Pittsburgh—Of the Commonwealth System of …, priority 2018, dated 2022):
Entries after “also recorded” stand apart in the source; their conditions may differ.

Key:
all tested Kv7 channels = test: Automated electrophysiology IonWorks Barracuda (IWB) agonist assay in HEK293 cells, all tested Kv7 channels; assay type: cell-based; details: for activity at all Kv7 channel types (in words): HEK293 cells, IWB
Experimental: (§1) Biological evaluation of the new analogs, including RL-81 as a positive standard was performed in the Eli Lilly Open Innovation Drug Discovery (OIDD) program (now discontinued; see https://openinnovation.lilly.com/dd/login.jsp). Ion channel agonistic potency was determined in a high-throughput assay using the automated electrophysiology IonWorks® Barracuda™ (IWB) platform (Molecular Devices, LLC) in HEK293 cells. The resulting 10-point concentration-response curves provide a measure of compound efficacy by determining the agonist concentration that doubles the conductance at the voltage leading to 15% channel activation (EC2x).

Kv7.2/Kv7.3 = biological target: T1, Kv7.2/Kv7.3 (Homo sapiens, UniProt O43525+O43526); test: Automated electrophysiology IonWorks Barracuda (IWB) agonist assay in HEK293 cells, Kv7.2/Kv7.3; assay type: cell-based; details: for selectivity index SI = EC2x(Kv7.4/Kv7.5)/EC2x(Kv7.2/Kv7.3): higher SI = better selectivity for Kv7.2/Kv7.3; for EC2x at Kv7.2/Kv7.3 (agonist concentration that doubles the conductance at the voltage leading to 15% channel activation): HEK293 cells, IWB, 10-point concentration-response
T1 construct: expressed in transfected cells; host or cells: HEK293
Experimental: as §1
Since the primary interest was in optimizing central (Kv7.2/Kv7.3) over peripheral Kv7.4/Kv7.5) tissue activities, a selectivity index (SI) was calculated as the inverse ratio of the EC2x values for these two channel types: SI=EC2x(Kv7.4/Kv7.5)/EC2×(Kv7.2/Kv7.3) The higher the SI ratio, the better the selectivity of the agent for the Kv7.2/Kv7.3 channels.

Kv7.4/Kv7.5 = biological target: T2, Kv7.4/Kv7.5 (Homo sapiens, UniProt P56696+Q9NR82); test: Automated electrophysiology IonWorks Barracuda (IWB) agonist assay in HEK293 cells, Kv7.4/Kv7.5; assay type: cell-based
T2 construct: expressed in transfected cells; host or cells: HEK293
Experimental: as §1

Kv7.3/Kv7.5 = biological target: T3, Kv7.3/Kv7.5 (Homo sapiens, UniProt O43525+Q9NR82); test: Automated electrophysiology IonWorks Barracuda (IWB) agonist assay in HEK293 cells, Kv7.3/Kv7.5; assay type: cell-based
T3 construct: expressed in transfected cells; host or cells: HEK293
Experimental: as §1

KCNQ2/3 = KCNQ2/3 (Homo sapiens, UniProt O43525+O43526); details: read-out: EC50 (KCNQ2/3 activator); cited from earlier work
Kv7.4 = biological target: T4, Kv7.4 (Homo sapiens, UniProt P56696); test: Automated electrophysiology IonWorks Barracuda (IWB) agonist assay in HEK293 cells, Kv7.4; assay type: cell-based
T4 construct: expressed in transfected cells; host or cells: HEK293
Experimental: as §1

Question: Which “activity at all Kv7 channel types (in words)” value (all tested Kv7 channels) does the source give for `Nc1c(F)c(NCc2ccc(C(F)(F)F)cc2F)cc(F)c1NC(=O)OC1CC1` [RL-46, Cyclopropyl (2-amino-3,6-difluoro-4-((2-fluoro-4-(trifluoromethyl)benzyl)amino)phenyl)carbamate] here?
Answer: moderately active

Question: And the “selectivity index SI = EC2x(Kv7.4/Kv7.5)/EC2x(Kv7.2/Kv7.3)” value (Kv7.2/Kv7.3)?
Answer: > 7

Question: With `CC(C)OC(=O)Nc1ccc(NCc2ccc(C(F)(F)F)cc2)c(F)c1N` [RL-32, Isopropyl (2-amino-3-fluoro-4-((4-(trifluoromethyl)benzyl)amino)phenyl)carbamate] as the compound, how does the “selectivity index SI = EC2x(Kv7.4/Kv7.5)/EC2x(Kv7.2/Kv7.3)” value (Kv7.2/Kv7.3) read?
Answer: 31

Question: What about the “potency at Kv7.2/Kv7.3 compared with RL-81 (more potent)” value (Kv7.2/Kv7.3; relative to RL-81) of the same compound?
Answer: slightly increased the potency

Question: And the “SI improvement over RL-81” value (Kv7.2/Kv7.3; versus SI=0.3 of RL-81)?
Answer: 100 ×

Question: And the “EC2x at Kv7.4/Kv7.5” value (Kv7.4/Kv7.5)?
Answer: 4.98 µM

Question: Which “selectivity / potency of 2-pyridyl analogs (in words)” value (Kv7.2/Kv7.3) does the source give for `CCOC(=O)Nc1ccc(NCc2ccc(C(F)(F)F)cn2)c(F)c1N` [RL-31, Ethyl (2-amino-3-fluoro-4-(((5-(trifluoromethyl)pyridin-2-yl)methyl)amino)phenyl)carbamate] here?
Answer: either low selectivity or low potency

Question: With `CCOC(=O)Nc1ccc(NCc2ccc(C(F)(F)F)cc2)c(F)c1N` [RL-81, Ethyl (2-amino-3-fluoro-4-((4-(trifluoromethyl)benzyl)amino)phenyl)carbamate] as the compound, how does the “EC2x at Kv7.3/Kv7.5” value (Kv7.3/Kv7.5) read?
Answer: 0.29 µM

Question: What about the EC50 (KCNQ2/3) of the same compound?
Answer: 260 nM

Question: What about the “efficacy versus flupirtine (FP), times higher” value (all tested Kv7 channels; at all tested Kv7 channels) of the same compound?
Answer: 8-50 times

Question: What about the “efficacy versus retigabine (RG), in words” value (all tested Kv7 channels; at all tested Kv7 channels) of the same compound?
Answer: comparable

Question: And the “selectivity index SI = EC2x(Kv7.4/Kv7.5)/EC2x(Kv7.2/Kv7.3)” value (Kv7.2/Kv7.3)?
Answer: 0.3

Question: What about the “EC2x at Kv7.4” value (Kv7.4) of the same compound?
Answer: 0.10 µM

Question: Which “selectivity / potency of 2-pyridyl analogs (in words)” value (Kv7.2/Kv7.3) does the source give for `Nc1c(NC(=O)OC2CC2)ccc(NCc2ccc(C(F)(F)F)cn2)c1F` [RL-68, Cyclopropyl (2-amino-3-fluoro-4-(((5-(trifluoromethyl)pyridin-2-yl)methyl)amino)phenyl)carbamate] here?
Answer: either low selectivity or low potency

Question: With `Nc1c(NC(=O)OC2CC2)cc(F)c(NCc2ccc(C(F)(F)F)cc2F)c1F` [RL-36, Cyclopropyl (2-amino-3,5-difluoro-4-((2-fluoro-4-(trifluoromethyl)benzyl)amino)phenyl)carbamate] as the compound, how does the “agonist activity at Kv7.3/Kv7.5 (in words)” value (Kv7.3/Kv7.5) read?
Answer: lacked agonist activity

Question: What about the “selectivity index SI = EC2x(Kv7.4/Kv7.5)/EC2x(Kv7.2/Kv7.3)” value (Kv7.2/Kv7.3) of the same compound?
Answer: > 10

Question: And the “agonist activity at Kv7.4 (in words)” value (Kv7.4)?
Answer: lacked agonist activity

Question: What about the “agonist activity at Kv7.4/Kv7.5 (in words)” value (Kv7.4/Kv7.5) of the same compound?
Answer: lacked agonist activity

Question: Which results are given for `Nc1c(NC(=O)OC2CC2)ccc(NCc2ccc(C(F)(F)F)nc2)c1F` [RL-67, Cyclopropyl (2-amino-3-fluoro-4-(((6-(trifluoromethyl)pyridin-3-yl)methyl)amino)phenyl)carbamate]?
Answer: potency compared to 2-pyridyl isomers RL-31 and RL-68 (in words) (Kv7.2/Kv7.3): essentially equivalent potency; selectivity compared to 2-pyridyl isomers RL-31 and RL-68 (in words) (Kv7.2/Kv7.3): slightly increased selectivity

Question: What does the source list for `CCOC(=O)Nc1ccc(NCc2ccc(C(F)(F)F)cc2F)c(F)c1N` [RL-18, Ethyl (2-amino-3-fluoro-4-((2-fluoro-4-(trifluoromethyl)benzyl)amino)phenyl)carbamate]?
Answer: EC2x at Kv7.2/Kv7.3 (agonist concentration that doubles the conductance at the voltage leading to 15% channel activation) (Kv7.2/Kv7.3): 0.18 ± 0.11 µM; selectivity index SI = EC2x(Kv7.4/Kv7.5)/EC2x(Kv7.2/Kv7.3) (Kv7.2/Kv7.3): 1.7

Question: Which “selectivity index SI = EC2x(Kv7.4/Kv7.5)/EC2x(Kv7.2/Kv7.3)” value (Kv7.2/Kv7.3) does the source give for `CCOC(=O)Nc1ccc(NCc2cccc(S(F)(F)(F)(F)F)c2)c(F)c1N` [RL-02, Ethyl (2-amino-3-fluoro-4-((3-(pentafluoro-λ^6-sulfanyl)benzyl)amino)phenyl)carbamate] here?
Answer: 1.8

Question: With `CCOC(=O)Nc1ccc(NCc2ccc(F)cc2)nc1N` [flupirtine, reference compound] as the compound, how does the EC50 (KCNQ2/3) read?
Answer: 2000 nM

Question: What about the “selectivity index SI = EC2x(Kv7.4/Kv7.5)/EC2x(Kv7.2/Kv7.3)” value (Kv7.2/Kv7.3) of the same compound?
Answer: 1.8

Question: For `CCOC(=O)Nc1cc(F)c(NCc2ccc(C(F)(F)F)cc2)cc1N` [RL-72, Ethyl (2-amino-5-fluoro-4-((4-(trifluoromethyl)benzyl)amino)phenyl)carbamate], which “EC2x at Kv7.3/Kv7.5” value (Kv7.3/Kv7.5) is on record?
Answer: > 10 µM

Question: What about the “EC2x at Kv7.2/Kv7.3 (agonist concentration that doubles the conductance at the voltage leading to 15% channel activation)” value (Kv7.2/Kv7.3) of the same compound?
Answer: 1.26 µM

Question: What about the “selectivity index SI = EC2x(Kv7.4/Kv7.5)/EC2x(Kv7.2/Kv7.3)” value (Kv7.2/Kv7.3) of the same compound?
Answer: > 7

Question: And the “reduction of potency (EC2x) at Kv7.2/Kv7.3 versus RL-81” value (Kv7.2/Kv7.3; relative to RL-81)?
Answer: 5 fold

Question: What about the “EC2x at Kv7.4” value (Kv7.4) of the same compound?
Answer: 4.65 µM

Question: What about the “EC2x at Kv7.4/Kv7.5” value (Kv7.4/Kv7.5) of the same compound?
Answer: > 10 µM

Question: What does the source list for `CCOC(=O)Nc1ccc(NCc2ccc(C(F)(F)F)nc2)c(F)c1N` [RL-24, Ethyl (2-amino-3-fluoro-4-(((6-(trifluoromethyl)pyridin-3-yl)methyl)amino)phenyl)carbamate]?
Answer: potency compared to 2-pyridyl isomers RL-31 and RL-68 (in words) (Kv7.2/Kv7.3): essentially equivalent potency; selectivity compared to 2-pyridyl isomers RL-31 and RL-68 (in words) (Kv7.2/Kv7.3): slightly increased selectivity

Question: Which “activity at all Kv7 channel types (in words)” value (all tested Kv7 channels) does the source give for `Nc1c(F)c(NCc2ccc(C(F)(F)F)cc2F)c(F)c(F)c1NC(=O)OC1CC1` [RL-50, Cyclopropyl (2-amino-3,5,6-trifluoro-4-((2-fluoro-4-(trifluoromethyl)benzyl)amino)phenyl)carbamate] here?
Answer: lost all activity; also recorded: inactive

Question: With `CCOC(=O)Nc1cc(C(F)(F)F)c(NCc2ccc(C(F)(F)F)cc2)c(F)c1N` [RL-073, Ethyl (2-amino-3-fluoro-5-(trifluoromethyl)-4-((4-(trifluoromethyl)benzyl)amino)phenyl)carbamate] as the compound, how does the “activity at all Kv7 channel types (in words)” value (all tested Kv7 channels) read?
Answer: completely abrogated activity

Question: Which “selectivity index SI = EC2x(Kv7.4/Kv7.5)/EC2x(Kv7.2/Kv7.3)” value (Kv7.2/Kv7.3) does the source give for `CCOC(=O)Nc1ccc(NCc2cccc(C(F)(F)F)c2)c(F)c1N` [RL-73, Ethyl (2-amino-3-fluoro-4-((3-(trifluoromethyl)benzyl)amino)phenyl)carbamate] here?
Answer: 4.7

Question: What about the “potency at Kv7.2/Kv7.3 compared with RL-81 (more potent)” value (Kv7.2/Kv7.3; relative to RL-81) of the same compound?
Answer: twice as potent

Question: For `Nc1c(NC(=O)OC2CC2)ccc(NCc2ccc(C(F)(F)F)cc2)c1F` [RL-56, Cyclopropyl (2-amino-3-fluoro-4-((4-(trifluoromethyl)benzyl)amino)phenyl)carbamate], which “EC2x at Kv7.2/Kv7.3 (agonist concentration that doubles the conductance at the voltage leading to 15% channel activation)” value (Kv7.2/Kv7.3) is on record?
Answer: 0.11 ± 0.02 µM

Question: And the “selectivity index SI = EC2x(Kv7.4/Kv7.5)/EC2x(Kv7.2/Kv7.3)” value (Kv7.2/Kv7.3)?
Answer: 2.5

Question: And the “potency at Kv7.2/Kv7.3 compared with RL-81 (more potent)” value (Kv7.2/Kv7.3; relative to RL-81)?
Answer: ca. 3

Question: For `CCOC(=O)Nc1ccc(NCc2ccc(C(F)(F)F)c(C#N)n2)c(F)c1N` [RL-23, Ethyl (2-amino-4-(((6-cyano-5-(trifluoromethyl)pyridin-2-yl)methyl)amino)-3-fluorophenyl)carbamate], which “selectivity / potency of 2-pyridyl analogs (in words)” value (Kv7.2/Kv7.3) is on record?
Answer: either low selectivity or low potency

Question: Which “selectivity / potency of 2-pyridyl analogs (in words)” value (Kv7.2/Kv7.3) does the source give for `Nc1c(NC(=O)OC2CC2)cc(F)c(NCc2ncc(C(F)(F)F)cc2F)c1F` [RL-01, Cyclopropyl (2-amino-3,5-difluoro-4-(((3-fluoro-5-(trifluoromethyl)pyridin-2-yl)methyl)amino)phenyl)carbamate] here?
Answer: either low selectivity or low potency

Question: Which EC50 (KCNQ2/3) does the source give for `CCOC(=O)Nc1ccc(NCc2ccc(F)cc2)cc1N` [retigabine] here?
Answer: 330 nM

Question: Which “agonist activity at Kv7.3/Kv7.5 (in words)” value (Kv7.3/Kv7.5) does the source give for `Nc1c(F)c(NCc2ncc(C(F)(F)F)cc2F)cc(F)c1NC(=O)OC1CC1` [RL-12, Cyclopropyl (2-amino-3,6-difluoro-4-(((3-fluoro-5-(trifluoromethyl)pyridin-2-yl)methyl)amino)phenyl)carbamate] here?
Answer: lacked activity

Question: What about the “agonist activity at other channels (in words)” value (all tested Kv7 channels; channels other than Kv7.2/Kv7.3) of the same compound?
Answer: no detectable agonist activity

Question: What about the “selectivity index SI = EC2x(Kv7.4/Kv7.5)/EC2x(Kv7.2/Kv7.3)” value (Kv7.2/Kv7.3) of the same compound?
Answer: > 10

Question: What about the “agonist activity at Kv7.4 (in words)” value (Kv7.4) of the same compound?
Answer: lacked activity

Question: And the “agonist activity at Kv7.4/Kv7.5 (in words)” value (Kv7.4/Kv7.5)?
Answer: lacked activity
